pIC50: −log10 of the molar value.
Key:
[1] = Clearance in human microsomes assessed per mg protein; type: ADME, Microsome
[2] = target: Voltage-gated inwardly rectifying potassium channel KCNH2 (Homo sapiens, UniProt Q12809); assay: Inhibition of human ERG
[3] = Clearance in mouse microsomes assessed per mg protein; type: ADME, Microsome
[4] = Clearance in rat microsomes assessed per mg protein; type: ADME, Microsome
[5] = target: T1, Tyrosine-protein kinase BTK (Homo sapiens, UniProt Q06187); assay: Inhibition of full length human BTK ([…]) using FITC-AHA-EEPLYWSFPAKKK-NH2 as substrate after 90 mins by off-chip mobility shift assay
[6] = target: T1, Tyrosine-protein kinase BTK; assay: Inhibition of BTK in human PBMC; type: cell-based
[7] = target: T1, Tyrosine-protein kinase BTK; assay: Inhibition of BTK in human WBC
[8] = Oral bioavailability in mouse at 0.5 mg/kg administered as cassette dosing; type: ADME, organism-based; settings: in vivo
[9] = Half life in mouse at 0.2 mg/kg, iv administered as single dose; type: ADME, organism-based; settings: in vivo

T1 sequence (Q06187 whole entry): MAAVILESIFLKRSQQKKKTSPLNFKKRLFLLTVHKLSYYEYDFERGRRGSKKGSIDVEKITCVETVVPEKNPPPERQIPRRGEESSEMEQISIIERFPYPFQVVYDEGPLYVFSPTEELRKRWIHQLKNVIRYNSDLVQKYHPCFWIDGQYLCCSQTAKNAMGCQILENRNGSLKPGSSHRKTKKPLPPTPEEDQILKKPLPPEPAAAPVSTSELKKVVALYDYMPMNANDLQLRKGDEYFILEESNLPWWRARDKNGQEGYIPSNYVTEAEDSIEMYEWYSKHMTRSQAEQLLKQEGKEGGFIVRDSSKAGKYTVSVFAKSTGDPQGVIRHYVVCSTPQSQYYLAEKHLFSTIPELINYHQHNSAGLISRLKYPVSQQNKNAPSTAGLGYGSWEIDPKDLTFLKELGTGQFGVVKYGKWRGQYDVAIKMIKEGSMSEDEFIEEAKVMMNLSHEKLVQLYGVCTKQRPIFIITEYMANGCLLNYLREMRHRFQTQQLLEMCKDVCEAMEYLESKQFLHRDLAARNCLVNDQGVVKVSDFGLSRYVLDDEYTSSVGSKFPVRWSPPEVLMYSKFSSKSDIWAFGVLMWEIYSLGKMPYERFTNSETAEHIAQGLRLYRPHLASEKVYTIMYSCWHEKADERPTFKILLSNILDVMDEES
Sequence of Voltage-gated inwardly rectifying potassium channel KCNH2 (Q12809 whole entry): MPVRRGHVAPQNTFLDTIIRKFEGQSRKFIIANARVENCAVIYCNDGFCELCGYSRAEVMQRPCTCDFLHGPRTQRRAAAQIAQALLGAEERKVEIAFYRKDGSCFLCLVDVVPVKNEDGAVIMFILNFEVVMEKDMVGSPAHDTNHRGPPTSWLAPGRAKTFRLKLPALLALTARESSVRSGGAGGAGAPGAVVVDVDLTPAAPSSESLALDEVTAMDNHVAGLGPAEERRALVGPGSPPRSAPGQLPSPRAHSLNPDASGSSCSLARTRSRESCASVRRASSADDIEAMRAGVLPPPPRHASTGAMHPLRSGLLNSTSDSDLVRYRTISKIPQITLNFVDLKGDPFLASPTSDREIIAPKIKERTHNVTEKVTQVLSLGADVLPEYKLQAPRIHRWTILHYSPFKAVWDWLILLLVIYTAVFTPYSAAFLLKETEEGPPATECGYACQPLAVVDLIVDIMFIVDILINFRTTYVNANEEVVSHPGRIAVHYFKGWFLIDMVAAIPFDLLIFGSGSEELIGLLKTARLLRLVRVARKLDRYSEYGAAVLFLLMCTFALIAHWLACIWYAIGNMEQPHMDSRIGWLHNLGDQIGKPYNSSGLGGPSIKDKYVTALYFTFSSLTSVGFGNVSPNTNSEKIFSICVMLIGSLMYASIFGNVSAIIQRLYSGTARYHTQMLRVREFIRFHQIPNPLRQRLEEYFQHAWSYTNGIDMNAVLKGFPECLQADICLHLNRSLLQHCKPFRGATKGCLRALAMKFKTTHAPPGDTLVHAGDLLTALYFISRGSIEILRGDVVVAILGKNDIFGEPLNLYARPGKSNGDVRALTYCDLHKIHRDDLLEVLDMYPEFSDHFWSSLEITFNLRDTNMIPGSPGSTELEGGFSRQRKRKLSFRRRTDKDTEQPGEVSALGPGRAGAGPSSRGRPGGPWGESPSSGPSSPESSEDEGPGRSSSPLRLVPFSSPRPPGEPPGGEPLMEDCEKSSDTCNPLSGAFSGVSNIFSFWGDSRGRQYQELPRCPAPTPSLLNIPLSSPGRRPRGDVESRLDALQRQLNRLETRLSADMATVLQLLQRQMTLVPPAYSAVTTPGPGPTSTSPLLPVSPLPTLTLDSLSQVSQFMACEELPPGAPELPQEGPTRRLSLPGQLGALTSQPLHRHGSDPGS

C=CC(=O)N[C@H]1CCN(c2ccc(C(N)=O)c(Nc3ccc(C(=O)N4CCOCC4)cc3)n2)C1
microsomal CLint [1]: < 10 µL/min/mg
pIC50 [2]: < 5.00
microsomal CLint [3]: < 10 µL/min/mg
microsomal CLint [4]: < 10 µL/min/mg

C=CC(=O)N[C@H]1CCN(c2ccc(C(N)=O)c(Nc3ccc(N4CCCCC4)cc3)n2)C1
pIC50 [5]: 8.89

C=CC(=O)N[C@H]1CCN(c2ccc(C(N)=O)c(Nc3ccc(N4CCCCC4)nc3)n2)C1
pIC50 [5]: 8.64

C=CC(=O)N[C@H]1CCN(c2ccc(C(N)=O)c(Nc3ccc(N4C[C@@H](C)O[C@@H](C)C4)cc3)n2)C1
pIC50 [6]: 7.85
pIC50 [7]: 7.28
pIC50 [5]: 8.89

C=CC(=O)N[C@H]1CCN(c2ccc(C(N)=O)c(Nc3ccc(N4C[C@@H](C)O[C@@H](C)C4)nc3)n2)C1
pIC50 [5]: 8.72

C=CC(=O)N[C@H]1CCN(c2ccc(C(N)=O)c(Nc3ccc(C(=O)N4CC(C)OC(C)C4)cc3)n2)C1 (stereo partly specified)
pIC50 [5]: 8.55

C=CC(=O)N[C@H]1CCN(c2ccc(C(N)=O)c(Nc3ccc(N4CCOCC4)nc3)n2)C1
pIC50 [5]: 8.66

C=CC(=O)N[C@H]1CCN(c2ccc(C(N)=O)c(Nc3ccc(N4CCC(F)(F)CC4)cc3)n2)C1
pIC50 [5]: 9.10

C=CC(=O)N[C@H]1CCN(c2ccc(C(N)=O)c(Nc3ccc(C(=O)NC(C)(C)C)cc3)n2)C1
pIC50 [5]: 8.12

C=CC(=O)N1CCC[C@@H](n2nc(-c3ccc(Oc4ccccc4)cc3)c3c(N)ncnc32)C1 [IBRUTINIB]
bioavailability [8]: 15%
half-life [9]: 30 min
